Holding throughout (assay type): biochemical
One experiment has as its target T1, Recombinant Src enzyme (Homo sapiens, UniProt P12931).
T1 construct: purchased Millipore 14-326; host or cells: Sf21 insect cells
Kind of experiment: Src HTRF assay. Here is the method:
Enzyme assay buffer, supplements, and compounds were prepared as described in the FAK HTRF assay.
Recombinant Src enzyme expressed in Sf21 insect cells was obtained (Millipore, Cat No. 14-326, Lot # D8CN006U-K). A 35 μM stock was used at a final concentration of 5 nM in the assay.
Tyk2 synthetic peptide-Biotinylated-N-terminal tag-[…]
A custom made substrate, a Tyk2 synthetic peptide, biotinylated with an N-terminal tag was obtained (Biopeptide and Sigma, Cat. No. 14918001 VC80021). A 100 μM stock was used at a final concentration of 0.5 μM in the assay.
A 10 mM stock in 100 μL enzyme assay buffer pH7.4 was prepared freshly and used at a final concentration of 10 μM in the assay.
Dasatinib (Bristol-Myers Squibb)
The assay procedure was the same as discussed above.

Another experiment addresses T2, recombinant human FAK1 (Homo sapiens, UniProt Q05397).
T2 construct: fused on or other part: N-terminal 6xHis tag
Kind of experiment: FAK1 HTRF assay. A digest of the protocol:
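His-tagged human FAK1 (residues 692–end, Sf9-expressed), 10 nM final, with 0.5 μM biotinylated gastrin-precursor Tyr87 peptide and a 10 μM final reagent in pH 7.4 buffer, 45 min at rt. Detection used Eu anti-pTyr antibody plus SA-APC (665/620 nm). Compounds top concentration 10 μM; IC50 from % inhibition.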

In a further experiment the target is T3, AURKB (Aurora B) enzyme (Homo sapiens, UniProt Q96GD4).
T3 construct: purchased Invitrogen PVR 130
In words: Aurora B HTRF assay. To be noted: read-out: AuroraB IC50. The procedure:
AURKB (Aurora B) enzyme was obtained (Invitrogen, Cat No. PVR 130, Lot No. 857013J). A 8.64 μM stock was used at a final concentration 5 nM in the assay.
Lance@Ultera Ulight-PLK (Ser137) peptide substrate
Peptide substrate was obtained from Perkin Elmer (Lot#1629793, TRF0110-M). A 5 μM stock was used at a final concentration of 50 nM in the assay.
10 mM stock prepared freshly as above, used at a final concentration of 30 μM in assay.
The plate was covered with aluminum foil, put on a shaker and incubated 1 h at rt.
Reference: Pfizer aurora inhibitor PF-03814735 was procured from Selleckchem: Cat# S2725
Using stock Lance detection buffer, 1× Lance detection buffer was prepared. • 1. 10× lance detection buffer was diluted to 1×, mixed well and 100 μL was removed, and was used to substitute with antibody and EDTA (for a total of 2200 μL). • 2. 88 μL of […] EDTA was added from 500 mM stock. • 3. 14 μL Europium labeled antibody (LANCE@ Ultra EU-Anti-P-PLK(Ser 137), TRF0203-D, Lot No. 1630351, Perkin Elmer) was added from 625 nM stock; required concentration was 2 nM in the assay. • 4. The buffer well was mixed and 20 μL was transferred to the each well in the assay plate. • 5. The solutions were incubated for 1 h at rt. • 6. The plate was read using MET-HTRF® protocol using Pherastar equipment.
A general note: Time-resolved FRET reads energy transfer from a long-lived donor to a nearby acceptor.

T2 sequence (Q05397 422-680 limits assumed): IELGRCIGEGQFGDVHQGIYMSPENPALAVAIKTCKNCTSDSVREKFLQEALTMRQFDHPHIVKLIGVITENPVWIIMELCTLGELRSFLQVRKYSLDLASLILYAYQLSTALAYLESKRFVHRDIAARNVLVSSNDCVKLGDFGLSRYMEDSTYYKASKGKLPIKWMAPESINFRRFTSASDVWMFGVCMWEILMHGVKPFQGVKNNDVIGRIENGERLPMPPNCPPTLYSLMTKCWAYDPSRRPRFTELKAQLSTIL
T1 sequence (P12931 whole entry): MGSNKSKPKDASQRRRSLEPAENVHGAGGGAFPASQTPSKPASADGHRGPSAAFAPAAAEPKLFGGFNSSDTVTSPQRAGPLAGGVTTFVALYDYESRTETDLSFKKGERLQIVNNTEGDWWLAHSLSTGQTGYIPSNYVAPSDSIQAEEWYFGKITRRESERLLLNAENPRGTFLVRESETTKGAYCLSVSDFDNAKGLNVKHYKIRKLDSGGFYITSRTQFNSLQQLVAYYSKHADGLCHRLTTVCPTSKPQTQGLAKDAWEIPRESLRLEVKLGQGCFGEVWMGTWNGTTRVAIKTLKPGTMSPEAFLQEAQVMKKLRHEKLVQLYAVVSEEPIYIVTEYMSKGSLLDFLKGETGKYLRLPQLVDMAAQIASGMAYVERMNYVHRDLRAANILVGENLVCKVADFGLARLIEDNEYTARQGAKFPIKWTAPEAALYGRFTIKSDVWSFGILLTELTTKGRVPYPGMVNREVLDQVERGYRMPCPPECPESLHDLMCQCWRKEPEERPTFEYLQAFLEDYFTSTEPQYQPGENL
T3 sequence (Q96GD4 whole entry): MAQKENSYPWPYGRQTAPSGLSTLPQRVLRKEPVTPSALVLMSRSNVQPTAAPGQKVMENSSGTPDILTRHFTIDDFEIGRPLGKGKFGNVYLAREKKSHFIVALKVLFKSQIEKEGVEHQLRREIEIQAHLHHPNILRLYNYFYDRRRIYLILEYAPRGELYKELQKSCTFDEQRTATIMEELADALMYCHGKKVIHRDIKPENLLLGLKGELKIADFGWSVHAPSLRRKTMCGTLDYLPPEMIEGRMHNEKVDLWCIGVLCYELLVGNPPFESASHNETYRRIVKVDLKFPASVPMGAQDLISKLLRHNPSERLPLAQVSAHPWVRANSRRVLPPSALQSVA

What is called IC50 is the concentration at which inhibition is half-maximal. As to `CC1(C)CN(S(=O)(=O)c2cccc3cccnc23)c2nc(Nc3ccc4c(c3)CC(=O)N4)ncc21` [Example 511], the IC50 on Recombinant Src enzyme is above 1000 nM. Take `COc1ccccc1S(=O)(=O)n1ccc2cnc(Nc3cccc(NC(C)=O)c3)nc21` [Example 104]: the concentration for half-maximal inhibition (IC50) at Recombinant Src enzyme is above 1000 nM. As for `COc1ccccc1S(=O)(=O)n1ccc2cnc(Nc3ccncc3)nc21` [Example 144], the IC50 at Recombinant Src enzyme was above 1000 nM. `O=S(=O)(c1cccc2cccnc12)n1ccc2cnc(Nc3ccc(N4CCNCC4)cc3CO)nc21` [Example 363]: the half-maximal inhibitory concentration (IC50) at Recombinant Src enzyme is above 1000 nM.

For the molecule `COc1cc(Nc2ncc3c(n2)N(S(=O)(=O)c2cccc4cccnc24)CC3(C)C)ccc1N1CCN[C@@H](C)C1` [Example 627], the IC50 on Recombinant Src enzyme was above 1000 nM. Regarding `CC(c1ccccc1N(C)S(C)(=O)=O)n1ccc2cnc(Nc3ccc(N4CCN[C@H](C)C4)cc3)nc21` (some centres unmarked) [Example 779], the IC50 at Recombinant Src enzyme is above 1000 nM. On to `CC1(C)CN(S(=O)(=O)c2cccc3ccccc23)c2nc(Nc3ccc(N4CCNCC4)cc3)ncc21` [Example 760], for which the IC50 on Recombinant Src enzyme was above 1000 nM. Still for that read-out and setting: the result for `CC1(C)CN(S(=O)(=O)c2cccc3cccnc23)c2nc(Nc3ccc(NC4CCNCC4)cc3)ncc21` [Example 673] reads above 1000 nM; that for `O=S(=O)(c1cccc2cccnc12)n1ccc2cnc(Nc3ccc(N4CCNCC4)cc3CO)cc21` [Example 361], above 1000 nM; that for `COc1ccccc1S(=O)(=O)n1ncc2cnc(Nc3ccc4ncsc4c3)cc21` [Example 132], above 1000 nM. As for `O=C1CCc2cc(Nc3ncc4ccn(S(=O)(=O)c5ccc6ncsc6c5)c4n3)ccc2N1` [Example 226], on Recombinant Src enzyme, the IC50 was above 1000 nM. For `C[C@H]1CN(c2ccc(Nc3cc4c(ccn4S(=O)(=O)c4ccccc4C#N)cn3)cc2)CCN1` [Example 472], the IC50 on recombinant human FAK1 and at AURKB (Aurora B) enzyme was below 20 nM in each case. Consider `CN(c1ccccc1Cn1ccc2cnc(Nc3ccc(N4CCN(CCO)CC4)cc3)nc21)S(C)(=O)=O` [Example 423], for which the 50% inhibitory concentration (IC50) on recombinant human FAK1 and at AURKB (Aurora B) enzyme was below 20 nM each time.

Take `O=S(=O)(c1cccc2cccnc12)n1ccc2cnc(Nc3ccc(N4CCOCC4)cc3)nc21` [Example 389]: the IC50 at recombinant human FAK1 and at AURKB (Aurora B) enzyme was below 20 nM in each case.

For the molecule `O=S(=O)(c1cccc2cccnc12)n1ccc2cnc(Nc3ccc(N4CCNCC4)c(F)c3)cc21` [Example 323], the IC50 on recombinant human FAK1 and on AURKB (Aurora B) enzyme was below 20 nM each time. Take `N#Cc1ccccc1S(=O)(=O)n1ccc2cnc(Nc3ccc4c(c3)CCC(=O)N4)nc21` [Example 115]: the IC50 at recombinant human FAK1 and at AURKB (Aurora B) enzyme was below 20 nM throughout.

On to `CS(=O)(=O)Nc1ccccc1Cn1ccc2cnc(Nc3ccc4c(c3)CCC(=O)N4)nc21` [Example 595], for which the IC50 at recombinant human FAK1 and on AURKB (Aurora B) enzyme was below 20 nM throughout.

`O=S(=O)(c1cccc2cccnc12)n1ccc2cnc(Nc3ccc(N4CCN(CCO)CC4)cc3)cc21` [Example 340]: the IC50 at recombinant human FAK1 and at AURKB (Aurora B) enzyme was below 20 nM each time. For the molecule `C[C@@H]1CNCCN1c1ccc(Nc2ncc3ccn(S(=O)(=O)c4cccc5cccnc45)c3n2)cc1` [Example 490], the IC50 at recombinant human FAK1 and on AURKB (Aurora B) enzyme was below 20 nM in each case. In the case of `O=S(=O)(c1cccc2cccnc12)n1ncc2cnc(Nc3ccc(N4CCNCC4)cc3)nc21` [Example 231, N-(4-(piperazin-1-yl)phenyl)-1-(quinolin-8-ylsulfonyl)-1H-pyrazolo[3,4-d]pyrimidin-6-amine], the IC50 at recombinant human FAK1 and at AURKB (Aurora B) enzyme was below 20 nM in each case. `CC1(C)CN(S(=O)(=O)c2cccc3cccnc23)c2nc(Nc3ccc4c(c3)CCC(=O)N4)ncc21` [Example 545]: the IC50 at recombinant human FAK1 and on AURKB (Aurora B) enzyme was below 20 nM each time. Turning to `CN(c1ncccc1Cn1ccc2cnc(Nc3ccc4c(c3)OCC(=O)N4)nc21)S(C)(=O)=O` [Example 218], the half-inhibitory concentration (IC50) at recombinant human FAK1 and at AURKB (Aurora B) enzyme was below 20 nM each time.

Consider `CN(c1ccccc1Cn1ccc2cnc(Nc3ccc(N4CCN(CC(=O)O)CC4)cc3)nc21)S(C)(=O)=O` [Example 662], for which the half-inhibitory concentration (IC50) at recombinant human FAK1 and on AURKB (Aurora B) enzyme was below 20 nM in each case. With `N#Cc1ccccc1S(=O)(=O)n1ccc2cnc(Nc3ccc(N4CCN(CCO)CC4)cc3)cc21` [Example 413], the IC50 on recombinant human FAK1 and on AURKB (Aurora B) enzyme was below 20 nM throughout. With `CS(=O)(=O)Nc1ccccc1Cn1ccc2cnc(Nc3ccc4c(c3)OCC(=O)N4)nc21` [Example 618], the IC50 on recombinant human FAK1 and on AURKB (Aurora B) enzyme was below 20 nM throughout.

For the molecule `C[C@@H]1CNCCN1c1ccc(Nc2cc3c(ccn3S(=O)(=O)c3cccc4cccnc34)cn2)cc1` [Example 480], the IC50 at recombinant human FAK1 and on AURKB (Aurora B) enzyme was below 20 nM throughout.

On to `CN1CCC(NC(=O)c2ccc(Nc3ncc4ccn(Cc5ccccc5N(C)S(C)(=O)=O)c4n3)cc2)CC1` [Example 777], for which the IC50 on recombinant human FAK1 and at AURKB (Aurora B) enzyme was below 20 nM in each case. Take `CN(C)C1CCN(c2ccc(Nc3cc4c(ccn4S(=O)(=O)c4ccccc4C#N)cn3)cc2)CC1` [Example 485]: the IC50 on recombinant human FAK1 and at AURKB (Aurora B) enzyme was below 20 nM each time. With `CN1CC2CC1CN2c1ccc(Nc2ncc3ccn(S(=O)(=O)c4cccc5cccnc45)c3n2)cc1` (centres unmarked) [Example 410], the half-inhibitory concentration (IC50) at recombinant human FAK1 and at AURKB (Aurora B) enzyme was below 20 nM each time.

Turning to `O=S(=O)(c1cccc2cccnc12)n1ccc2cnc(Nc3ccc(N4CCC(CO)CC4)cc3)nc21` [Example 440], the IC50 at recombinant human FAK1 and at AURKB (Aurora B) enzyme was below 20 nM each time. On to `C[C@H]1CN(c2ccc(Nc3ncc4ccn(S(=O)(=O)c5cccc6cccnc56)c4n3)cc2)CCN1` [Example 230], for which the IC50 at recombinant human FAK1 and on AURKB (Aurora B) enzyme was below 20 nM each time.

Regarding `CN(c1ncccc1Cn1ccc2cnc(Nc3ccc4c(c3)C(C)(C)CC(=O)N4)nc21)S(C)(=O)=O` [Example 211], the half-inhibitory concentration (IC50) on recombinant human FAK1 and on AURKB (Aurora B) enzyme was below 20 nM throughout. For `O=c1[nH]c2ccc(Nc3ncc4ccn(S(=O)(=O)c5cccc6cccnc56)c4n3)cc2[nH]1` [Example 395], the IC50 at recombinant human FAK1 and on AURKB (Aurora B) enzyme was below 20 nM throughout.

On to `C[C@H]1CNCCN1c1ccc(Nc2ncc3ccn(S(=O)(=O)c4cccc5cccnc45)c3n2)cc1` [Example 326], for which the concentration for half-maximal inhibition (IC50) at recombinant human FAK1 and at AURKB (Aurora B) enzyme was below 20 nM throughout.

Regarding `Cc1ccc(N(C)S(C)(=O)=O)c(Cn2ccc3cnc(Nc4ccc(N5CCC(N(C)C)CC5)c(C)c4)nc32)c1` [Example 780], the concentration for half-maximal inhibition (IC50) at recombinant human FAK1 and at AURKB (Aurora B) enzyme was below 20 nM throughout.

Turning to `C[C@@H](O)CN1CCN(c2ccc(Nc3ncc4ccn(Cc5ccccc5N(C)S(C)(=O)=O)c4n3)cc2)CC1` [Example 665], the IC50 on recombinant human FAK1 and on AURKB (Aurora B) enzyme was below 20 nM in each case. As to `COc1ccc(N(C)S(C)(=O)=O)c(Cn2ccc3cnc(Nc4ccc(N5CCN[C@@H](C)C5)cc4)nc32)c1` [Example 675], the IC50 on recombinant human FAK1 and on AURKB (Aurora B) enzyme was below 20 nM in each case. As for `CN(C)C1CCN(c2ccc(Nc3ncc4ccn(S(=O)(=O)c5cccc6cccnc56)c4n3)cc2)CC1` [Example 462], the IC50 at recombinant human FAK1 and at AURKB (Aurora B) enzyme was below 20 nM throughout.

With `O=S(=O)(c1cccc2cccnc12)n1ccc2cnc(Nc3ccc(N4CCNCC4)cc3)cc21` [Example 321], the IC50 at recombinant human FAK1 and on AURKB (Aurora B) enzyme was below 20 nM each time. As to `COc1cc(Nc2ncc3ccn(S(=O)(=O)c4cccc5cccnc45)c3n2)ccc1N1CCN(C)CC1` [Example 427], the IC50 on recombinant human FAK1 and at AURKB (Aurora B) enzyme was below 20 nM throughout.

Turning to `CN1CCN(c2ccc(Nc3cc4c(ccn4S(=O)(=O)c4cccc5cccnc45)cn3)cc2)CC1` [Example 353], the IC50 at recombinant human FAK1 and on AURKB (Aurora B) enzyme was below 20 nM throughout.

In the case of `COc1ccc(N(C)S(C)(=O)=O)c(Cn2ccc3cnc(Nc4ccc5c(c4)CC(=O)N5)nc32)c1` [Example 691], the IC50 at recombinant human FAK1 and on AURKB (Aurora B) enzyme was below 20 nM throughout. As for `CN1CCN(c2ccc(Nc3ncc4ccn(Cc5ccccc5N(C)S(C)(=O)=O)c4n3)cc2)CC1` [Example 428], the IC50 at recombinant human FAK1 and on AURKB (Aurora B) enzyme was below 20 nM throughout.

With `CN(c1ccccc1Cn1ccc2cnc(Nc3ccc(N4CCNC(C)(C)C4)cc3)nc21)S(C)(=O)=O` [Example 606], the concentration for half-maximal inhibition (IC50) on recombinant human FAK1 and on AURKB (Aurora B) enzyme was below 20 nM in each case.

The values are drawn from patent US20160222014A1, “COMPOUNDS FOR REGULATING FAK AND/OR SRC PATHWAYS” (ASANA BIOSCIENCES, LLC, priority 2013, published 2016).
